Reference: PMC9582194, “The effect of helix-inducing constraints and downsizing upon a transcription block survival-derived functional cJun antagonist” (Cell Reports. Physical Science, 2022)
Where “and” joins values, the source holds several entries; their conditions need not be identical. Equal entries are not always repeated. Positions of bridges follow the written chain, without caps; N, C: chain ends. Residues, ends and D or L forms follow the SMILES beside them.

Tests used:
cJun [1] = biological target: T1, cJun (Homo sapiens, UniProt P05412); assay: CD thermal denaturation of peptide-cJun heterodimers (Tm); format: binding; details: for Tm of peptide-cJun heterodimer: CD ellipticity at 222 nm, 1-90 °C, peptide (5 μM)/cJun (5 μM), 20 mM potassium phosphate, 150 mM potassium fluoride, 2 mM TCEP pH 7.4, two-state fit, duplicate experiments, ± one SD
T1 construct: The same 60 amino acid cJun construct, encompassing the entire bZIP domain, was used for all experiments
Protocol: (§1) The precise nature of the interaction between the cJun DBD and the rationally designed acidic domain of HW1 is unknown. HW1 was, therefore, iteratively truncated from the N terminus (HW2–6) to investigate the effect on cJun binding and cJun/TRE DNA antagonism (Table 1). Peptide fraction helicity (fH) was determined by quantifying the circular dichroism (CD) signal at 222 nm of peptide-only samples (Figure S1). Thermal denaturation experiments were then used to determine the melting temperature (Tm) of peptide-cJun heterodimers, which serves as an approximate measure of target engagement. CD was also used to investigate the functional activity of peptides in antagonizing the cJun/TRE DNA interaction. […] This provides a clear and direct measurement of the proportion of DNA bound to cJun. As antagonist peptide concentration was increased, the peak shifted to overlay with that of free TRE-DNA (Figure S4). For each peptide, the data were fit to a Hill equation to determine half-maximal inhibitory concentration (IC50) values, specific to these assay conditions, providing a clear comparative measure of antagonism. The same 60 amino acid cJun construct, encompassing the entire bZIP domain, was used for all experiments regardless of antagonist peptide length.
Figure 2 Iterative N-terminal truncation of HingeW reduces cJun binding and antagonism (A) Thermal denaturation profiles for iteratively truncated peptide (5 μM)/cJun (5 μM) heterodimer samples. (B) CD antagonism data produced by monitoring the shift in a DNA specific peak to provide a direct readout of cJun-DNA binding. Peptides are added at the indicated concentrations to a pre-incubated mixture of cJun (20 μM) and TRE DNA (5 μM). Data points were averaged from triplicate experiments, and error bars indicate one SD. The data were fitted to a Hill equation to determine IC50 values. Some higher peptide concentration data points for HW6 and HW9 are not shown in this plot for clarity.

[2] = Peptide fraction helicity by CD at 222 nm, peptide-only samples; format: physicochemical; details: CD signal at 222 nm of peptide-only samples; pH 7.4 phosphate/KF/TCEP buffer; duplicate experiments
Protocol: as §1

cJun [3] = biological target: T1, cJun; assay: Isothermal titration calorimetry (ITC) with cJun; format: binding; details: 25 °C, average of two experiments ± one SD
From the text: A selection of peptides from this work were investigated by isothermal titration calorimetry (ITC) to quantify the thermodynamic parameters of their interaction with target cJun (Figure 4 and S6; Table 2). The determined equilibrium binding constant (KD) values follow from the CD data above and can be rationalized in terms of the truncation or lactamization they represent. […] All interactions investigated were dominated by the enthalpic component, with a smaller unfavorable entropic contribution, other than for HW8/cJun, which is the weakest interaction. The unfavorable entropic component was largest for the HW30/cJun interaction and smallest for HW23/cJun. This indicates the introduction of lactams produces a more unfavorable entropic component, perhaps a surprising result as helix-inducing lactamization is typically considered to increase affinity through entropic pre-organization. However, the larger increase in the favorable enthalpic component produces an increase in binding affinity due to lactamization. This is likely to be caused by a combination of enhanced intermolecular contacts and ordering that are opposed by unfavorable desolvation effects.
Two-μL injections of antagonist peptide at 25–200 μM were injected into the cell containing cJun at 2.5–20 μM at 25°C. Microcal Control and Analysis software were used to record and analyze the heat change upon addition and fit the data to a one-site binding model to extract the enthalpy change of binding (ΔH) and the KD, from which the free energy change of binding (ΔG) and the entropy change of binding (ΔS) were calculated.[40] Control experiments involved the injection of the antagonist peptide sample into the cell containing ITC buffer alone to determine the heat of dilution, which was subtracted. Thermodynamic parameters are presented as an average of two independent experiments with errors given as one SD.

Stability in human serum = details: human serum (Merck), 75 μL of 600 μM peptide stock added to 1425 μL serum, 37 °C, 3-day endpoint; acetonitrile:water precipitation; LC-MS, sum of two largest charge-state peaks; average of three repeats
TRE DNA = assay: CD of TRE DNA with antagonist peptide alone (Figure S3); format: binding; details: TRE DNA (5 μM) + HingeW (50 μM), CD 260-320 nm
Protocol: as §1, with “length. […]” for “length.”
wavelength range, so the CD signal observed occurs due to the DNA structure, which is not perturbed upon addition of HingeW. […]

cJun/TRE DNA interaction = biological target: T2, cJun/TRE DNA interaction (Homo sapiens, UniProt P05412); assay: CD antagonism of the cJun/TRE DNA interaction; format: biochemical
T2 construct: The same 60 amino acid cJun construct, encompassing the entire bZIP domain, was used for all experiments
Protocol: as §1, with “For each peptide, the data were fit to a Hill equation to determine half-maximal inhibitory concentration (IC50) values, specific to these assay conditions, providing a clear comparative measure of antagonism. The same 60 amino acid cJun construct, encompassing the entire bZIP domain, was used for all experiments regardless of antagonist peptide length.” left out
Figure 2 Iterative N-terminal truncation of HingeW reduces cJun binding and antagonism (A) Thermal denaturation profiles for iteratively truncated peptide (5 μM)/cJun (5 μM) heterodimer samples. (B) CD antagonism data produced by monitoring the shift in a DNA specific peak to provide a direct readout of cJun-DNA binding. […]

[4] = biological target: cJun (60 amino acid construct encompassing the entire bZIP domain) (UniProt P05412)
[5] = biological target: T3, cJun (60 amino acid construct encompassing the entire bZIP domain) (UniProt P05412 252-315); assay: CD thermal denaturation; peptide (5 μM) with cJun (5 μM); ellipticity at 222 nm, 1°C to 90°C; 20 mM potassium phosphate, 150 mM potassium fluoride, 2 mM TCEP, pH 7.4; two-state fit gives the Tm of the peptide-cJun heterodimer; duplicate experiments; details: both partners purified
[6] = CD thermal denaturation; peptide alone (no cJun); thermal denaturation curves compared as a sign of homodimerization; details: other: CD thermal denaturation
[7] = biological target: T3, cJun (60 amino acid construct …); assay: cell-based or functional assay
[8] = peptide 25-200 μM injected into cJun 2.5-20 μM, pH 7.4, one-site model

T1 sequence (P05412 252-315 limits assumed): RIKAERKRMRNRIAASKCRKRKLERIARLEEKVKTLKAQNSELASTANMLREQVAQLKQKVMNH
T2 sequence (P05412 252-315 limits assumed): as above
T3 sequence (P05412 252-315): as the sequence (P05412 252-315 limits assumed) above
Sequence of cJun (60 amino acid construct encompassing the entire bZIP domain) (UniProt P05412) (P05412 252-315): as the sequence (P05412 252-315 limits assumed) above

Ac-EAEELVVEEDVLEEEIEQLEERNYALRKEIEDLQKQLEKL-NH2 [HW4]
Tm of peptide-cJun heterodimer (cJun [1]): 64.1 ± 1.5 °C | fH, peptide fraction helicity [2]: 45.5% | ΔH (cJun [3]; pH 7.4, one-site model): -45.399 ± 1.93 kcal/mol | Stoichiometry, n (cJun [3]; [8]): 0.91 ± 0.04

MASLEQRAEELARENEELEKEAEELVVEEDVLEEEIEQLEERNYALRKEIEDLQKQLEKLGAPHHHHHH [HW1, TBS-derived cJun antagonist; recombinantly produced N/C-capped, C-terminally 6xHis-tagged construct of 69 amino acids]
peptide remaining in human serum, peak intensity relative to starting value (Stability in human serum): fully degraded | fH, peptide fraction helicity [2]: ~27% and 27.2% | interaction with TRE DNA (in words) (TRE DNA): does not interact | ΔG (cJun [3]; pH 7.4, calculated from KD): -13.45 ± 0.179 kcal/mol | -TΔS (cJun [3]; pH 7.4, calculated from ΔH and KD): 17.55 ± 0.884 kcal/mol

CC[C@H](C)[C@H](NC(=O)[C@H](CCC(=O)O)NC(=O)[C@H](CCCCN)NC(=O)[C@H](CCCNC(=N)N)NC(=O)[C@H](CC(C)C)NC(=O)[C@H](C)NC(=O)[C@H](Cc1ccc(O)cc1)NC(=O)[C@H](CC(N)=O)NC(=O)[C@H](CCCNC(=N)N)NC(=O)[C@H](CCC(=O)O)NC(=O)[C@H](CCC(=O)O)NC(=O)[C@H](CC(C)C)NC(=O)[C@H](CCC(N)=O)NC(=O)[C@H](CCC(=O)O)NC(=O)[C@@H](NC(=O)[C@H](CCC(=O)O)NC(=O)[C@@H]1CC(=O)NCCCC[C@H](NC(=O)[C@H](CCC(=O)O)NC(=O)[C@H](CCC(=O)O)NC(=O)[C@@H](NC(=O)[C@@H](NC(=O)[C@H](CC(C)C)NC(=O)[C@H](CCC(=O)O)NC(=O)[C@H](CCC(=O)O)NC(=O)[C@H](C)NC(=O)[C@H](CCC(=O)O)NC(C)=O)C(C)C)C(C)C)C(=O)N[C@@H](C(C)C)C(=O)N[C@@H](CC(C)C)C(=O)N[C@@H](CCC(=O)O)C(=O)N1)[C@@H](C)CC)C(=O)N[C@H]1CCCCNC(=O)C[C@@H](C(=O)N[C@@H](CCC(N)=O)C(N)=O)NC(=O)[C@H](CCC(N)=O)NC(=O)[C@H](CC(C)C)NC(=O)[C@H](CC(=O)O)NC1=O [HW30] (Ac-EAEELVVEEKVLEDEIEQLEERNYALRKEIKDLQDQ-NH2; lactam 10-14, 31-35)
peptide remaining in human serum, peak intensity relative to starting value (Stability in human serum): 56%

CC[C@H](C)[C@H](NC(=O)[C@H](CCC(=O)O)NC(=O)[C@H](CCCCN)NC(=O)[C@H](CCCNC(=N)N)NC(=O)[C@H](CC(C)C)NC(=O)[C@H](C)NC(=O)[C@H](Cc1ccc(O)cc1)NC(=O)[C@H](CC(N)=O)NC(=O)[C@H](CCCNC(=N)N)NC(=O)[C@H](CCC(=O)O)NC(=O)[C@H](CCC(=O)O)NC(=O)[C@H](CC(C)C)NC(=O)[C@H](CCC(N)=O)NC(=O)[C@H](CCC(=O)O)NC(=O)[C@@H](NC(=O)[C@H](CCC(=O)O)NC(=O)[C@H](CCC(=O)O)NC(=O)[C@H](CCC(=O)O)NC(=O)[C@H](CC(C)C)NC(=O)[C@@H](NC(=O)[C@H](CC(=O)O)NC(=O)[C@H](CCC(=O)O)NC(=O)[C@H](CCC(=O)O)NC(=O)[C@@H](NC(=O)[C@@H](NC(=O)[C@H](CC(C)C)NC(=O)[C@H](CCC(=O)O)NC(=O)[C@H](CCC(=O)O)NC(=O)[C@H](C)NC(=O)[C@H](CCC(=O)O)NC(C)=O)C(C)C)C(C)C)C(C)C)[C@@H](C)CC)C(=O)N[C@H]1CCCCNC(=O)C[C@@H](C(=O)N[C@@H](CCC(N)=O)C(N)=O)NC(=O)[C@H](CCC(N)=O)NC(=O)[C@H](CC(C)C)NC(=O)[C@H](CC(=O)O)NC1=O [HW29] (Ac-EAEELVVEEDVLEEEIEQLEERNYALRKEIKDLQDQ-NH2; lactam 31-35)
ΔTm of cJun heterodimer due to lactamization (cJun [1]; cyclized versus its linear (non-lactamized) counterpart): ~9 °C | ΔTm of cJun heterodimer relative to parent sequence HW8 (cJun [1]; versus HW8, before the substitutions for K and D residues): ~8 °C | peptide remaining in human serum, peak intensity relative to starting value (Stability in human serum): 31% | Kd (cJun [3]; [8]): 0.0866 ± 0.017 µM

MASLEQRAEELARENEELEKEAEELVVE-NH2 [HW7, acidic domain of HW1 alone (CΔ35)]
binding to cJun (in words) (cJun [1]; acidic domain alone): not to bind | antagonism of the ability of cJun to bind TRE DNA (in words) (cJun/TRE DNA interaction; CD antagonism assay): did not

Ac-EAEELVVEEDVLEEEIEQLEERNYALRKEIEDLQKQ-NH2 [HW8]
Tm of peptide-cJun heterodimer (cJun [1]): 57.1 ± 0.9 °C | peptide remaining in human serum, peak intensity relative to starting value (Stability in human serum): fully degraded | fH, peptide fraction helicity [2]: 37.3% | ΔH (cJun [3]; pH 7.4, one-site model): -5.989 ± 0.813 kcal/mol | Stoichiometry, n (cJun [3]; [8]): 0.95 ± 0.09

Ac-EAEELVVEEDVLEEEIEQLEEKNKALKDEIEDLY-NH2 [HW14]
IC50 (cJun/TRE DNA interaction; peptide added to pre-incubated cJun (20 μM) and TRE DNA (5 μM), shift of DNA CD peak at ~281 nm, 30 min equilibration, pH 7.4, Hill fit, triplicate experiments, ± one SD, read-out: IC50 CD (antagonism of cJun/TRE DNA binding)): 1560 µM | fH, peptide fraction helicity [2]: 30.1%

B1: HW14 (peptide)
peptide: Ac-EAEELVVEEDVLEEEIEQLEEKNKALKDEIEDLY-NH2
IC50 CD: peptide added to pre-incubated cJun (20 μM) and TRE DNA (5 μM); blocks cJun/TRE DNA binding [4]: 1560 µM

B2: HW5 (peptide)
peptide: Ac-LVVEEDVLEEEIEQLEERNYALRKEIEDLQKQLEKL-NH2
notes: truncation NΔ24 CΔ3 of HW1; source: synthetic peptide (Fmoc SPPS, RP-HPLC purified)
Tm of the peptide-cJun heterodimer [5]: 62.8 °C | Tm of the peptide alone [6]: HW5 displayed a Tm of 41 °C | IC50 CD: peptide added to pre-incubated cJun (20 μM) and TRE DNA (5 μM); blocks cJun/TRE DNA binding [7]: 78.2 µM
